pIC50: −log10 of the molar value.
What follows are compounds tested against hDGAT2 (Homo sapiens (Human), UniProt Q96PD7) (assay: DGAT2 Enzymatic Activity Assay). Conditions: hDGAT2 Sf-9 membrane prep; 25 μM diolein, 10 μM oleoyl-CoA; triolein product by LC/MS/MS; read-out: IC50 values for inhibition of DGAT2.
Type: biochemical
Experimental: Sf-9 insect cells were maintained in Grace's insect cell culture medium with 10% heated-inactivated fetal bovine serum, 1% Pluronic F-68 and 0.14 μg/ml Kanamycine sulfate in Erlenmeyer flasks at 28° C. in a shaker incubator. After infection with untagged hDGAT2 baculovirus at multiplicity of infection (MOI) 0.1 for 48 hours, cells were harvested. Cell pellets were suspended in buffer containing 10 mM Tris-HCl (pH 7.5), 1 mM EDTA (pH 8.0), 250 mM sucrose and Complete Protease Inhibitor Cocktail (Roche Diagnostics Corp., Indianapolis, Ill.), and sonicated on ice. Membrane fractions were isolated by ultracentrifugation (100,000×g pellet), resuspended in the same buffer, and frozen (−80° C.) for later use. The protein concentration was determined with the BCA Protein Assay kit (Pierce Biotechnology Inc., Rockford, Ill.). Expression of protein levels was analyzed by immunoblotting with goat polyclonal DGAT2 antibody C-15 and donkey anti-goat IgG HRP (Santa Cruz Biotechnology, Inc., Santa Cruz, Calif.) followed by detection with ECL reagent (GE Healthcare, Piscataway, N.J.).
LC/MS/MS analyses were performed using Thermal Fisher's LX4-TSQ Vantage system. This system consists of an Agilent binary high-performance liquid chromatography (HPLC) pumps and a TSQ Vantage triple quadrupole MS/MS instrument. For each sample, 2 μL, samples from the top organic layer of in-plate liquid-liquid extraction were injected onto a Thermo Betabasic C4 column (2.1 mm×20 mm, 5 μm particle size). The samples were then eluted using the following conditions; mobile phase: methanol/water with 0.1% ammonium format=92/8 (v/v), flow rate: 1 mL/min, temperature: 25 C. Data was acquired in positive mode using a heated electrospray ionization (HESI) interface. The operational parameters for the TSQ Vantage MS/MS instrument were a spray voltage of 3000 V, capillary temperature of 280° C., vaporizer temperature 400° C., shealth gas 60 arbitrary unit, Aux gas 40 arbitrary units, S-lens 113 and collision gas 0.16 Pascals. […] (SRM) chromatograms of triolein (Q1: 902.9>Q3: 602.3) and internal standard (Q1: 902.9>Q3: 602.3) were collected for 40 sec. The peak area was integrated by Xcalibur Quan software. The ratio between the triolein generated in the reaction and spiked in internal standard were used to generate percentage inhibition and IC50 values. Compound percentage inhibition was calculated by the following formula: Inhibition %=1-[(compound response low control)/(high control low control)]×100%. Potent compounds were titrated and IC50 were calculated by 4 parameter sigmoidal curve fitting formula.
DGAT2 activity was determined by measuring the amount of enzymatic product triolein (1,2,3-Tri(cis-9-octadecenoyl)glycerol) using the membrane prep mentioned above. The assay was carried out in deep well 384 plates in a final volume of 40 μL at room temperature. The assay mixture contained the following: assay buffer (100 mM Tris.Cl, pH 7.0, 20 mM MgCl2, 5% ethanol), 25 μM of diolein, 10 μM of oleoyl-CoA and 10 ng/μL of DGAT2 membrane.

Chain of hDGAT2 (Q96PD7 whole entry): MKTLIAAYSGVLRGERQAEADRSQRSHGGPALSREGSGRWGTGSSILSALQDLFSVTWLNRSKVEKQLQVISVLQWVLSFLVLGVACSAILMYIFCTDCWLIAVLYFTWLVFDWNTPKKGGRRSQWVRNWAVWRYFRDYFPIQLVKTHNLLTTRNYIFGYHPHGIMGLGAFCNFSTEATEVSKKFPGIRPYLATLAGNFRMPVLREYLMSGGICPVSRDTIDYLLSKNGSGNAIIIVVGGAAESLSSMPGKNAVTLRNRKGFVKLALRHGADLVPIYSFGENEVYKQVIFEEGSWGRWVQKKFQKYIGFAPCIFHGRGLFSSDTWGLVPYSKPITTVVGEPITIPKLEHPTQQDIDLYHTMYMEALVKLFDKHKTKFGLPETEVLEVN

In order of rising pIC50:
1. COc1cccc(-c2ccc(CNC(=O)[C@@H]3C[C@H]3c3ccccc3)c3c2CCN(C(=O)NCCCC(=O)O)C3)c1 (relative stereo) [Example 64, 4-(5-(3-methoxyphenyl)-8-(((trans)-2-phenylcyclopropanecarboxamido)methyl)-1,2,3,4-tetrahydroisoquinoline-2-carboxamido)butanoic acid]  5.37
2. Cc1noc([C@@H]2C[C@H]2C(=O)NCc2ccc(-c3cccc(OC(F)(F)F)c3)c3c2CN(CC(=O)N2CCOCC2(C)C)CC3)n1 (relative stereo) [Example 91, (trans)-N-((2-(2-(3,3-dimethylmorpholino)-2-oxoethyl)-5-(3-(trifluoromethoxy)phenyl)-1,2,3,4-tetrahydroisoquinolin-8-yl)methyl)-2-(3-methyl-1,2,4-oxadiazol-5-yl)cyclopropanecarboxamide]  5.37
3. COc1cccc(-c2ccc(CNC(=O)[C@H]3C[C@@H]3C(=O)O)c3c2CCN(C(=O)NC(C)(C)C)C3)c1 (relative stereo) [Example 84, (trans)-2-(((2-(tert-butylcarbamoyl)-5-(3-methoxyphenyl)-1,2,3,4-tetrahydroisoquinolin-8-yl)methyl)carbamoyl)cyclopropanecarboxylic acid]  5.87
4. COc1cccc(-c2ccc(CNC(=O)[C@H]3C[C@@H]3c3ccccc3)c3c2CCN(Cc2cc(F)cc(F)c2)C3)c1 (relative stereo) [Example 92, (trans)-N-((2-(3,5-difluorobenzyl)-5-(3 methoxyphenyl)-1,2,3,4-tetrahydroisoquinolin-8-yl)methyl)-2-phenylcyclopropanecarboxamide]  5.94
5. COc1cccc(-c2ccc(CNC(=O)[C@@H]3C[C@H]3c3ccccc3)c3c2CCN(C(=O)N2CCOCC2)C3)c1 (relative stereo) [Example 62, (trans)-N-((5-(3-methoxyphenyl)-2-(morpholine-4-carbonyl)-1,2,3,4-tetrahydroisoquinolin-8-yl)methyl)-2-phenylcyclopropanecarboxamide]  6.09
6. COc1cccc(-c2ccc(CNC(=O)[C@@H]3C[C@H]3c3ccccc3)c3c2CCN(C(=O)NC(C)(C)CC(C)(C)C)C3)c1 (relative stereo) [Example 61, 5-(3-methoxyphenyl)-8-(((trans)-2-phenylcyclopropanecarboxamido)methyl)-N-(2,4,4-trimethylpentan-2-yl)-3,4-dihydroisoquinoline-2(1H)-carboxamide]  6.30
7. CCC(C)CNC(=O)N1CCc2c(-c3cccc(OC)c3)ccc(CNC(=O)[C@@H]3C[C@H]3c3ccccc3)c2C1 (relative stereo) [Example 75, 5-(3-methoxyphenyl)-N-(2-methylbutyl)-8-(((trans)-2-phenylcyclopropanecarboxamido)methyl)-3,4-dihydroisoquinoline-2(1H)-carboxamide]  6.63
8. CCOC(=O)CCCNC(=O)N1CCc2c(-c3cccc(OC)c3)ccc(CNC(=O)[C@@H]3C[C@H]3c3ccccc3)c2C1 (relative stereo) [Example 59, ethyl 4-(5-(3-methoxyphenyl)-8-(((trans)-2-phenylcyclopropanecarboxamido)methyl)-1,2,3,4-tetrahydroisoquinoline-2-carboxamido)butanoate]  6.64
9. COc1cccc(-c2ccc(CNC(=O)[C@@H]3C[C@H]3c3ccccc3)c3c2CCN(C(=O)NC2COC2)C3)c1 (relative stereo) [Example 74, 5-(3-methoxyphenyl)-N-(oxetan-3-yl)-8-(((trans)-2-phenylcyclopropanecarboxamido)methyl)-3,4-dihydroisoquinoline-2(1H)-carboxamide]  7.05
10. Cc1noc([C@@H]2C[C@H]2C(=O)NCc2ccc(-c3cccc(OC(F)(F)F)c3)c3c2CN(C(=O)NC2COC2)CC3)n1 (relative stereo) [Example 73, 8-(((trans)-2-(3-methyl-1,2,4-oxadiazol-5-yl)cyclopropanecarboxamido)methyl)-N-(oxetan-3-yl)-5-(3-(trifluoromethoxy)phenyl)-3,4-dihydroisoquinoline-2(1H)-carboxamide]  7.28
11. CCCNC(=O)N1CCc2c(-c3cccc(OC)c3)ccc(CNC(=O)[C@@H]3C[C@H]3c3ccccc3)c2C1 (relative stereo) [Example 70]  7.69
12. CC(C)(C)NC(=O)N1CCc2c(-c3cccc(C(C)(C)O)c3)ccc(CNC(=O)[C@@H]3C[C@H]3c3ccccc3)c2C1 (relative stereo) [Example 52, N-(tert-butyl)-5-(3-(2-hydroxypropan-2-yl)phenyl)-8-(((trans)-2-phenylcyclopropanecarboxamido)methyl)-3,4-dihydroisoquinoline-2(1H)-carboxamide]  7.70
13. Cc1noc([C@@H]2C[C@H]2C(=O)NCc2ccc(-c3cccc(C(F)(F)F)c3)c3c2CN(C(=O)NC2(C)COC2)CC3)n1 (relative stereo) [Example 69, 8-(((trans)-2-(3-methyl-1,2,4-oxadiazol-5-yl)cyclopropanecarboxamido)methyl)-N-(3-methyloxetan-3-yl)-5-(3-(trifluoromethyl)phenyl)-3,4-dihydroisoquinoline-2(1H)-carboxamide]  7.71
14. COc1cccc(-c2ccc(CNC(=O)[C@@H]3C[C@H]3c3ccccc3)c3c2CCN(C(=O)NC2(C)COC2)C3)c1 (relative stereo) [Example 68, 5-(3-methoxyphenyl)-N-(3-methyloxetan-3-yl)-8-(((trans)-2-phenylcyclopropanecarboxamido)methyl)-3,4-dihydroisoquinoline-2(1H)-carboxamide]  7.86
15. COc1cccc(-c2ccc(CNC(=O)[C@@H]3C[C@H]3c3nc(C)no3)c3c2CCN(C(=O)NC2(C)COC2)C3)c1 (relative stereo) [Example 53, 5-(3-methoxyphenyl)-8-(((trans)-2-(3-methyl-1,2,4-oxadiazol-5-yl)cyclopropanecarboxamido)methyl)-N-(3-methyloxetan-3-yl)-3,4-dihydroisoquinoline-2(1H)-carboxamide]  7.87
16. Cc1noc([C@@H]2C[C@H]2C(=O)NCc2ccc(-c3cccc(OC(F)(F)F)c3)c3c2CN(C(=O)NC2(C)COC2)CC3)n1 (relative stereo) [Example 67, 8-(((trans)-2-(3-methyl-1,2,4-oxadiazol-5-yl)cyclopropanecarboxamido)methyl)-N-(3-methyloxetan-3-yl)-5-(3-(trifluoromethoxy)phenyl)-3,4-dihydroisoquinoline-2(1H)-carboxamide]  7.87
17. CCCNC(=O)N1CCc2c(-c3cccc(C(F)(F)F)c3)ccc(CNC(=O)[C@@H]3C[C@H]3c3nc(C)no3)c2C1 (relative stereo) [Example 66, 8-(((trans)-2-(3-methyl-1,2,4-oxadiazol-5-yl)cyclopropanecarboxamido)methyl)-N-propyl-5-(3-(trifluoromethyl)phenyl)-3,4-dihydroisoquinoline-2(1H)-carboxamide]  7.94
18. COC(=O)c1cccc(-c2ccc(CNC(=O)[C@@H]3C[C@H]3c3ccccc3)c3c2CCN(C(=O)NC2(C)CCCC2)C3)c1 (relative stereo) [Example 55, methyl 3-(2-((1-methylcyclopentyl)carbamoyl)-8-(((trans)-2 phenylcyclopropanecarboxamido)methyl)-1,2,3,4-tetrahydroisoquinolin-5-yl) benzoate]  8.00
19. CC(C)(C)NC(=O)N1CCc2c(-c3cccc(-n4cncn4)c3)ccc(CNC(=O)[C@@H]3C[C@H]3c3ccccc3)c2C1 (relative stereo) [Example 50, 5-(3-(1H-1,2,4-triazol-1-yl)phenyl)-N-(tert-butyl)-8-(((trans)-2-phenylcyclopropanecarboxamido)methyl)-3,4-dihydroisoquinoline-2(1H)-carboxamide]  8.03
20. COC(=O)c1cccc(-c2ccc(CNC(=O)[C@H]3C[C@@H]3c3ccccc3)c3c2CCN(C(=O)NC2(C)CC2)C3)c1 (relative stereo) [Example 54, methyl 3-(2-((1-methylcyclopropyl)carbamoyl)-8-(((trans)-2-phenylcyclopropanecarboxamido)methyl)-1,2,3,4-tetrahydroisoquinolin-5-yl) benzoate]  8.95

Reference: patent publication US10568876B2, “Tetrahydroisoquinoline derivatives useful as inhibitors of diacylglyceride O-acyltransferase 2” (Merck Sharp & Dohme Corp., priority 2014, dated 2020)
